Source: ChEMBL document CHEMBL1158619, “Synthesis and biological activity of oxadiazole and triazolothiadiazole derivatives as tyrosinase inhibitors” (Bioorg Med Chem Lett, 2010)
Active and inactive are the calls of the source. The calls are words filed in the database; no cut-off is given here.

Experiments:
Tyrosinase = target: T1, Tyrosinase (Agaricus bisporus, UniProt O42713)
T1 sequence (O42713 whole entry): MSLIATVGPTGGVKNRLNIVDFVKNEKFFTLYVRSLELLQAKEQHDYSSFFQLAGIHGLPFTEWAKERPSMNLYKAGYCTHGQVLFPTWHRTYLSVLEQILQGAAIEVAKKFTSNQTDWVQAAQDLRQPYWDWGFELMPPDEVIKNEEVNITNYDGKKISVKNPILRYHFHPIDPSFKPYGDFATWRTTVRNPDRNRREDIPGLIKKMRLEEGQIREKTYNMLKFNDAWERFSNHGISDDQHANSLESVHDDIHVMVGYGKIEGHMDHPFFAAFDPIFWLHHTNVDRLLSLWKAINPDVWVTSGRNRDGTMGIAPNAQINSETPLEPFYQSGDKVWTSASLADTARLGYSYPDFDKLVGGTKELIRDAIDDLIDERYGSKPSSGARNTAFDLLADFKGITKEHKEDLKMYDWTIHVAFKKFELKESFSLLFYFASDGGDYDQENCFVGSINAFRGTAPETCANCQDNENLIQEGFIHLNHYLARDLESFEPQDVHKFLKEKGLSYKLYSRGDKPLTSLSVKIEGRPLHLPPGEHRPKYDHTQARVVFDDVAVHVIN
Description: Inhibition of mushroom tyrosinase preincubated for 5 mins before addition of L-DOPA measured after 10 mins

[1] = target: T2, Tyrosinase (Agaricus bisporus) (UniProt O42713); test: Inhibition of mushroom tyrosinase at 50 uM preincubated for 5 mins before addition of L-DOPA measured after 10 mins
T2 sequence (whole entry): T1 sequence (O42713 whole entry)

| Structure (SMILES) | IC50 (Tyrosinase) [nM] | inhibition [1] |
| --- | --- | --- |
| c1ccc(-c2nnc(SCCN3CCCCC3)o2)cc1 |  | inactive |
| Cc1cc(C)n(-c2ccc(-c3nn4c(-c5ccccc5)nnc4s3)cc2)n1 |  | inactive |
| Clc1ccccc1-c1nnc2sc(-c3cccnc3)nn12 |  | inactive |
| S=c1oc(Cc2cccc3ccccc23)nn1CN1CCCC1 | 1330 |  |
| Clc1ccccc1-c1nnc(SCCN2CCCCC2)o1 |  | inactive |
| c1ccc2c(Cc3nnc(SCCN4CCCCC4)o3)cccc2c1 |  | inactive |
| c1ccc(-c2nnc3sc(-c4nccc5ccccc45)nn23)cc1 |  | inactive |

Further lines, results first:

| IC50 (Tyrosinase) [nM] | inhibition [1] | Structure (SMILES) |
| --- | --- | --- |
| 970 |  | S=c1oc(Cc2cccc3ccccc23)nn1CN1CCCCC1 |
|  | inactive | Cc1cc(C)n(-c2ccc(-c3nn4c(Cc5cccc6ccccc56)nnc4s3)cc2)n1 |
|  | inactive | Cc1cc(C)n(-c2ccc(-c3nn4c(-c5ccccc5Cl)nnc4s3)cc2)n1 |
| 1340 |  | S=c1oc(Cc2cccc3ccccc23)nn1CN1CCOCC1 |
| 1490 |  | CN1CCN(Cn2nc(Cc3cccc4ccccc34)oc2=S)CC1 |
| 870 |  | S=c1oc(Cc2cccc3ccccc23)nn1CN1CCNCC1 |
|  | inactive | Clc1ccccc1-c1nnc2sc(-c3nccc4ccccc34)nn12 |
|  | inactive | Clc1ccccc1-c1nnc(SCCN2CCOCC2)o1 |
|  | inactive | c1ccc2c(Cc3nnc4sc(-c5nccc6ccccc56)nn34)cccc2c1 |
